In patent publication US20250057793A1, “BENZOIC ACID SALTS FOR TREATMENT OF NERVOUS SYSTEM INJURIES AND DISORDERS” (The United States Government as represented by the …, priority 2021, published 2025):

Key:
[1] = tested on: experimental allergic encephalomyelitis (EAE) in mice; conditions: oral, 50 mg/kg body wt/d; cited from earlier work
[2] = tested on: oligodendroglial progenitor cells (OPCs); assay: Maturation of oligodendroglial progenitor cells (OPCs) into oligodendrocytes; format: cell-based, mouse
Protocol: FIGS. 15A-15L: Effect of sodium benzoate (NaB) on the maturation of oligodendroglial progenitor cells (OPCs) into oligodendrocytes. OPCs were isolated from P1˜P2 neonatal mouse pups, cultured in OPC media for 4 days in vitro (DIV) followed by treatment with 100 μM NaB and sodium formate (NaFO) in the absence of FGF and PDGF.
FIG. 15A) After 18 h of 100 μM NaB treatment in serum-free condition, cells were fixed and then dual immuno-stained with MBP (red) and OPC marker NG2 (green). Nuclei were stained with DAPI (blue). FIG. 15B) Similarly, OPCs were stained with PLP (red) and A2B5 (green) under similar treatment condition. Quantification of MBP+(FIG. 15C), NG2+(FIG. 15D), PLP+(FIG. 15E), and A2B5+(FIG. 15F) cells as a percentage of total cells (DAPI+). Average 5 fields per slide, total 3 slides. Results are mean+SEM. ***p<0.001. FIG. 15G) For protein expression, cells were treated with different doses of NaB for 18 h under serum free condition and then immunoblotted with PLP and MOG. FIG. 15H) Densitometric analyses of the bands relative to beta actin were done for PLP and MOG. ^ap<0.001 vs. control PLP; ^bp<0.005 vs. control MOG. FIG. 151) Cells were treated with NaB (100 μM) and NaFO (100 μM) for 4 h under serum-free condition followed by monitoring the mRNA expression of myelin-specific genes by real-time PCR (ap<0.01 vs. control PLP; ^bp<0.01 vs. control MOG; cp<0.01 vs. control MBP; dp<0.01 vs. control CNPase). OPCs were cultured on the top of randomly-oriented polycaprolactone nanofibers (Nanofiber Solutions; Cat #Z694576) for 7 days. After that, these cells were treated with 100 μM NaB (FIG. 15J) and NaFO (K) for additional 2 days followed by immunofluorescence analysis for MBP (red) (FIG. 15J, control; FIG. 15K, NaB; FIG. 15L, NaFO). […] Representative 3D constructed images of OPCs adhered to nanofibers were also shown at the right side.

LPS-stimulated microglia = conditions: cited from earlier work
[3] = mice treated with cinnamon orally; cited from earlier work
[4] = if consumed in excess; cited from earlier work
[5] = different doses of NaB, 18 h, serum free

Structure (SMILES) | adoptive transfer of EAE [1] | mRNA expression of myelin-specific genes (MBP, PLP, MOG, CNPase), real-time PCR ([2]; 100 μM, 4 h, serum-free) | differentiation/maturation of OPCs into oligodendrocytes (MBP+, PLP+, NG2+, A2B5+ cells) ([2]; 100 μM, 18 h, serum-free, absence of FGF and PDGF) | level of MOG in OPCs (immunoblot) [2, 5] | level of PLP in OPCs (immunoblot) [2, 5] | level of TLR4 (LPS-stimulated microglia; LPS-stimulated microglia) | LPS-induced expression of iNOS and proinflammatory cytokines (LPS-stimulated microglia; microglia) | p21ras activation (LPS-stimulated microglia; microglial cells) | presence of NaB in the brain [3] | excretion [4]
O=C(OCC(COC(=O)c1ccccc1)OC(=O)c1ccccc1)c1ccccc1 [GTB, Glyceryl Tribenzoate] | inhibits | – | – | – | – | – | – | – | – | –
O=C([O-])c1ccccc1.[Na+] [NaB, Sodium benzoate] | – | corroborated | stimulated | increased | increased | has no effect | inhibits | suppression | detected in the brain | secreted through the urine
